Test results reported in patent publication US20250376468A1, “PYRAZOLO[1,5-a]PYRIDINE DERIVATIVES FOR TREATING TRPM3-MEDIATED DISORDERS” (Katholieke Universiteit Leuven, priority 2022, published 2025).

target: T1, mouse TRPM3α2 (mTRPM3) ion channel (Mus musculus, UniProt J9SQF3); assay: TRPM3 ion channel driven Ca2+ uptake, Fluo-4 AM assay, stimulated with pregnenolone sulfate (50 μM); type: cell-based; conditions: TRPM3 overexpressing flip-in HEK293 cells, PS 50 μM, 2.4 mM Ca2+
T1 construct: expressed in transfected cells; host or cells: flip-in HEK293 (Flp-In HEK293) overexpressing mTRPM3alpha2
Protocol: In order to monitor the inhibition of the mouse TRPM3α2 (mTRPM3) ion channel by the compounds of the invention, a cellular system making use of an mTRPM3alpha2 or hTRPM3 overexpressing cell line (flip-in HEK293) was used. The TRPM3 channel was stimulated/opened with Pregnenolone sulfate (PS) (50 μM) which results in Ca^2+ influx.
For mTRPM3, the intracellular Ca^2+ was measured with a Calcium responsive dye, Fluor-4 AM ester (Invitrogen). Cells were cultured until a confluence of 80-90%, washed with Versene (Invitrogen) and detached from the surface by a short incubation with 0.05% Trypsin (Invitrogen). The […] was stopped by the addition of complete cell culture medium (DMEM, glutamax, 10% FCS, NEAA, Pen-Strep). Cells were collected and resuspended in Krebs buffer without Calcium at RT.
Prior the cell seeding (±2000 cells/well into a black, 384 well plate (Greiner)) the diluted compound was added in the assay plate, together with the PS dissolved in Krebs buffer containing Calcium. […] Directly after cell addition the plates were read on an Envision fluorescence reader (Perkin Elmer) by an Excitation of 485 nm and emission at 535 nm.
Channel inhibition was calculated compared to a non-PS stimulated control versus a condition stimulated with PS (50 μM) with vehicle. The ability of the compounds of the invention to inhibit this activity was determined as: Percentage inhibition=[1−((RFU determined for sample with test compound present−RFU determined for sample with positive control inhibitor) divided by (RFU determined in the presence of vehicle−RFU determined for sample with positive control inhibitor))]*100.
The activities of the Example compounds cpd 001-091 tested are depicted in the table below. All tested compounds show an activity in the Fluo-4 AM assay. The activity ranges A, B and C refer to IC50 values in the Fluo-4 AM assay as follows: “A”: IC50<1 μM; “B”: 1 μM≤IC50≤20 μM and “C”: IC50>20 μM.

T1 sequence (J9SQF3 1-1709 isoform J9SQF3-12): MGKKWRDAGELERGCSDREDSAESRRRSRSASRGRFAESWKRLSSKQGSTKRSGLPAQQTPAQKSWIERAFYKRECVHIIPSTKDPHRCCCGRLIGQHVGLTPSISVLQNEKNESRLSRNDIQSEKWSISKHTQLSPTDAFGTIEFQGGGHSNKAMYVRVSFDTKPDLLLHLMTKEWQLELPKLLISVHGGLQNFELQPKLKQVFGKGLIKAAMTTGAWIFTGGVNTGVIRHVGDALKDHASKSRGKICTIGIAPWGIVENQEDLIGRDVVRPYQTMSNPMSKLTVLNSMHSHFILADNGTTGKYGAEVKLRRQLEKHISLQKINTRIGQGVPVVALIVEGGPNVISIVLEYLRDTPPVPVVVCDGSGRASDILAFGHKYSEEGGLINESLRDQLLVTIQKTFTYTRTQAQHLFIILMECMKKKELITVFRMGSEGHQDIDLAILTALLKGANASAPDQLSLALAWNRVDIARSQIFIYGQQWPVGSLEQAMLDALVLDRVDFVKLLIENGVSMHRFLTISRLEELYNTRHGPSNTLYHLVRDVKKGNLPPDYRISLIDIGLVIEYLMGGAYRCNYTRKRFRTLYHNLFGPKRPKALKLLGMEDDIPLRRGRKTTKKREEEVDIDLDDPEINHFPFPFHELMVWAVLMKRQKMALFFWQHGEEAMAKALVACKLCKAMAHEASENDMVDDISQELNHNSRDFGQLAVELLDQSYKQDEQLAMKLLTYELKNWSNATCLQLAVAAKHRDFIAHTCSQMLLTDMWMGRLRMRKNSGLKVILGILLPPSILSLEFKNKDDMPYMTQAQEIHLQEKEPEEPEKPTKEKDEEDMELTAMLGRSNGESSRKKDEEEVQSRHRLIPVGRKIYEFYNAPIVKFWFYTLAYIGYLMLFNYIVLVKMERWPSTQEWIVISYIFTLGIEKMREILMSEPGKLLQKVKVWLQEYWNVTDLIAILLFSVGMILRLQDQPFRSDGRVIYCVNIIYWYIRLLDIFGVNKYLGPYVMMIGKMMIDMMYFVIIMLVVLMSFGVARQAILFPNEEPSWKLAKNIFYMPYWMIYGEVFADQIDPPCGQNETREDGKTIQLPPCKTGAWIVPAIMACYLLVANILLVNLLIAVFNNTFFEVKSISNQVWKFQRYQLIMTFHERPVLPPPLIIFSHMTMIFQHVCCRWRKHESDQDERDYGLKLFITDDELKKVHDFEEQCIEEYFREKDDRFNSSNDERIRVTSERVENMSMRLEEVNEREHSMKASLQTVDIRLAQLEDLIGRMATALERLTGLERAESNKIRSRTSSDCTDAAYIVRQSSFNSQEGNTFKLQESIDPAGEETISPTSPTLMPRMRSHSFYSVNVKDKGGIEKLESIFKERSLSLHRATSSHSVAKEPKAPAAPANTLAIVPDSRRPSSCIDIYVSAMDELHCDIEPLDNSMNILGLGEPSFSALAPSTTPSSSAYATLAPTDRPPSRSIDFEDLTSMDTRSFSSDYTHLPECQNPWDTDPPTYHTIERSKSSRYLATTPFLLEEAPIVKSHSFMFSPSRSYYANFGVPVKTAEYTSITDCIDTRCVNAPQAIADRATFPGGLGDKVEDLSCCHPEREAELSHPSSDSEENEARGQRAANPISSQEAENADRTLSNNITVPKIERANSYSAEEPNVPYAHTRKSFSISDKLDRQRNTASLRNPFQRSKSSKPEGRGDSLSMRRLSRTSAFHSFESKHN

| IC50 [µM] | Compound |
| --- | --- |
| > 20 | Cc1nn2ccc(OCc3ccccc3Cl)cc2c1C(=O)O [Cpd 036, 5-[(2-chlorophenyl)methoxy]-2-methylpyrazolo[1,5-a]pyridine-3-carboxylic acid] |
| < 1 | Cc1nn2ccc(OCc3ccccc3F)cc2c1C(=O)NC1(CO)CCNC1=O (single isomer, unassigned) [Cpd 018 - En2, 5-[(2-fluorophenyl)methoxy]-N-[3-(hydroxymethyl)-2-oxopyrrolidin-3-yl]-2-methylpyrazolo[1,5-a]pyridine-3-carboxamide] |
| > 20 | Cc1nn2ccc(OCc3ccccn3)cc2c1C(=O)NC1(CO)COC(C)(C)OC1 [Cpd 057, N-[5-(hydroxymethyl)-2,2-dimethyl-1,3-dioxan-5-yl]-2-methyl-5-[(pyridin-2-yl)methoxy]pyrazolo[1,5-a]pyridine-3-carboxamide] |
| > 20 | Cc1nn2ccc(OCC3CC3)cc2c1C(=O)O [Cpd 034, 5-(cyclopropylmethoxy)-2-methylpyrazolo[1,5-a]pyridine-3-carboxylic acid] |
| 1 to 20 | Cc1nn2ccc(OCc3ccccn3)cc2c1C(=O)NC(C)(CO)CC(F)F (single isomer, unassigned) [Cpd 038 - En1, N-(4,4-difluoro-1-hydroxy-2-methylbutan-2-yl)-2-methyl-5-[(pyridin-2-yl)methoxy]pyrazolo[1,5-a]pyridine-3-carboxamide] |
| 1 to 20 | Cc1nn2ccc(OCc3ccccn3)cc2c1C(=O)NCC(C)(C)CN(C)C [Cpd 045, N-[3-(dimethylamino)-2,2-dimethylpropyl]-2-methyl-5-[(pyridin-2-yl)methoxy]pyrazolo[1,5-a]pyridine-3-carboxamide] |
| > 20 | Cc1nn2ccc(OCc3ccccn3)cc2c1C(=O)NC1CNCCC1(F)F (single isomer, unassigned) [Cpd 050 - En1, N-(4,4-difluoropiperidin-3-yl)-2-methyl-5-[(pyridin-2-yl)methoxy]pyrazolo[1,5-a]pyridine-3-carboxamide] |
| 1 to 20 | Cc1ncsc1COc1ccn2nc(C)c(C(=O)NC(C)(CO)CO)c2c1 [Cpd 008, N-(1,3-dihydroxy-2-methylpropan-2-yl)-2-methyl-5-[(4-methyl-1,3-thiazol-5-yl)methoxy]pyrazolo[1,5-a]pyridine-3-carboxamide] |
| 1 to 20 | Cc1nn2ccc(OCc3ccccn3)cc2c1C(=O)NC1CNCC(F)(F)C1 (single isomer, unassigned) [Cpd 052 - En1, N-(5,5-difluoropiperidin-3-yl)-2-methyl-5-[(pyridin-2-yl)methoxy]pyrazolo[1,5-a]pyridine-3-carboxamide] |
| > 20 | Cc1nn2ccc(OCc3ccccn3)cc2c1C(=O)NC(CO)Cc1ncccn1 (stereo not shown) [Cpd 079 - En 1] |
| 1 to 20 | Cc1nn2ccc(OCc3ccccn3)cc2c1C(=O)NC1(CO)CC(F)(F)C1 [Cpd 055, N-[3,3-difluoro-1-(hydroxymethyl)cyclobutyl]-2-methyl-5-[(pyridin-2-yl)methoxy]pyrazolo[1,5-a]pyridine-3-carboxamide] |
| < 1 | Cc1nn2ccc(OCc3ccccc3Cl)cc2c1C(=O)NC(C)(CO)C(N)=O (single isomer, unassigned) [Cpd 019 - En1, 2-({5-[(2-chlorophenyl)methoxy]-2-methylpyrazolo[1,5-a]pyridin-3-yl}formamido)-3-hydroxy-2-methylpropanamide] |
| 1 to 20 | Cc1nn2ccc(OCc3ccccc3F)cc2c1C(=O)NC(C)(C)C(N)=O [Cpd 004, 2-({5-[(2-fluorophenyl)methoxy]-2-methylpyrazolo[1,5-a]pyridin-3-yl}formamido)-2-methylpropanamide] |
| > 20 | Cc1nn2ccc(OCc3ccccn3)cc2c1C(=O)Nc1cc(C(F)(F)F)cnc1O [Cpd 056, N-[2-hydroxy-5-(trifluoromethyl)pyridin-3-yl]-2-methyl-5-[(pyridin-2-yl)methoxy]pyrazolo[1,5-a]pyridine-3-carboxamide] |
| < 1 | Cc1nn2ccc(OCc3ccccn3)cc2c1C(=O)NC(C)(CO)C(N)=O (single isomer, unassigned) [Cpd 089 - En2, 3-hydroxy-2-methyl-2-({2-methyl-5-[(pyridin-2-yl)methoxy]pyrazolo[1,5-a]pyridin-3-yl}formamido)propanamide] |
| < 1 | Cc1nn2ccc(OCc3ccccc3Cl)cc2c1C(=O)N[C@@H](CO)C(N)=O [Cpd 012, (2S)-2-({5-[(2-chlorophenyl)methoxy]-2-methylpyrazolo[1,5-a]pyridin-3-yl}formamido)-3-hydroxypropanamide] |
| 1 to 20 | Cc1nn2ccc(OCc3ccccc3F)cc2c1C(=O)NCCNS(C)(=O)=O [Cpd 005, 5-[(2-fluorophenyl)methoxy]-N-(2-methanesulfonamidoethyl)-2-methylpyrazolo[1,5-a]pyridine-3-carboxamide] |
| < 1 | Cc1nn2ccc(OCc3ccccc3Cl)cc2c1C(=O)NC(C)(CO)CO [Cpd 014, 5-[(2-chlorophenyl)methoxy]-N-(1,3-dihydroxy-2-methylpropan-2-yl)-2-methylpyrazolo[1,5-a]pyridine-3-carboxamide] |
| > 20 | Cc1nn2ccc(OCc3ccccc3)cc2c1C(=O)O [Cpd 033, 5-(benzyloxy)-2-methylpyrazolo[1,5-a]pyridine-3-carboxylic acid] |
| > 20 | Cc1nn2ccc(OCc3ccccc3F)cc2c1C(=O)O [Cpd 035, 5-[(2-fluorophenyl)methoxy]-2-methylpyrazolo[1,5-a]pyridine-3-carboxylic acid] |
| 1 to 20 | Cc1nn2ccc(OCc3ccccn3)cc2c1C(=O)NCc1ncc[nH]1 [Cpd 044, N-[(1H-imidazol-2-yl)methyl]-2-methyl-5-[(pyridin-2-yl)methoxy]pyrazolo[1,5-a]pyridine-3-carboxamide] |
| > 20 | Cc1nn2ccc(OCc3ccccn3)cc2c1C(=O)NC1CNCC(F)(F)C1 (single isomer, unassigned) [Cpd 052 - En2, N-(5,5-difluoropiperidin-3-yl)-2-methyl-5-[(pyridin-2-yl)methoxy]pyrazolo[1,5-a]pyridine-3-carboxamide] |
| > 20 | Cc1nn2ccc(OCc3ccccn3)cc2c1C(=O)N[C@H](CO)CC(N)=O [Cpd 076 - En1, (S)-4-hydroxy-3-({2-methyl-5-[(pyridin-2-yl)methoxy]pyrazolo[1,5-a]pyridin-3-yl}formamido)butanamide] |
| < 1 | Cc1nn2ccc(OCc3ccccc3F)cc2c1C(=O)NC(C)(CO)C(N)=O (single isomer, unassigned) [Cpd 020 - En1, 2-({5-[(2-fluorophenyl)methoxy]-2-methylpyrazolo[1,5-a]pyridin-3-yl}formamido)-3-hydroxy-2-methylpropanamide] |
| > 20 | Cc1nn2ccc(OCc3ccccn3)cc2c1C(=O)NCc1cccc(OC(F)F)c1 [Cpd 048, N-{[3-(difluoromethoxy)phenyl]methyl}-2-methyl-5-[(pyridin-2-yl)methoxy]pyrazolo[1,5-a]pyridine-3-carboxamide] |
| > 20 | Cc1nn2ccc(OCc3ccccn3)cc2c1C(=O)NC1(CO)CC1(F)F (stereo not shown) [Cpd 071, N-[2,2-difluoro-1-(hydroxymethyl)cyclopropyl]-2-methyl-5-[(pyridin-2-yl)methoxy]pyrazolo[1,5-a]pyridine-3-carboxamide] |
| < 1 | CCC(CO)(NC(=O)c1c(C)nn2ccc(OCc3ccccc3F)cc12)C(N)=O (stereo not shown) [Cpd 001, 2-({5-[(2-fluorophenyl)methoxy]-2-methylpyrazolo[1,5-a]pyridin-3-yl}formamido)-2-(hydroxymethyl)butanamide] |
| 1 to 20 | Cc1ncsc1COc1ccn2nc(C)c(C(=O)N[C@@H](CO)C(N)=O)c2c1 [Cpd 010, (2S)-3-hydroxy-2-({2-methyl-5-[(4-methyl-1,3-thiazol-5-yl)methoxy]pyrazolo[1,5-a]pyridin-3-yl}formamido)propanamide] |
| < 1 | Cc1nn2ccc(OCc3ccccc3F)cc2c1C(=O)N[C@H](C(N)=O)[C@@H](C)O [Cpd 007, (2S,3R)-2-({5-[(2-fluorophenyl)methoxy]-2-methylpyrazolo[1,5-a]pyridin-3-yl}formamido)-3-hydroxybutanamide] |
| 1 to 20 | CNC(=O)C(C)(CO)NC(=O)c1c(C)nn2ccc(OCc3ccccc3F)cc12 (single isomer, unassigned) [Cpd 011 - En2, 2-({5-[(2-fluorophenyl)methoxy]-2-methylpyrazolo[1,5-a]pyridin-3-yl}formamido)-3-hydroxy-N,2-dimethylpropanamide] |

| Compound | IC50 [µM] |
| --- | --- |
| Cc1nn2ccc(OCc3ccccn3)cc2c1C(=O)N[C@@]1(CO)C[C@H]1C(F)F (relative stereo) [Cpd 072 - En1, N-[cis-2-(difluoromethyl)-1-(hydroxymethyl)cyclopropyl]-2-methyl-5-[(pyridin-2-yl)methoxy]pyrazolo[1,5-a]pyridine-3-carboxamide] | 1 to 20 |
